Laboratory results taken from PubChem BioAssay AID1963431 (Molecular Pharmacology Branch, DTP, NCI, 2024).

Tested on: Rh18 complex spheroid viability, percent test/control
Test: Anticancer human tumor Rh18 cell line growth inhibition [Asc];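 note: spheroids exposed to compound for 7 days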;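 for viability, T/C: 100% = DMSO vehicle control wells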
Settings: for IC50: curve of first compound; for viability, T/C: stronger effect = lower value
How it was run: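 Tumor cells were grown as multicellular spheroids with stromal HUVEC and mesenchymal stem cells and treated singly or in combination. Concentrations fell in half-log steps from the clinical Cmax, or from 10 microM where none was known.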

[1] = second compound 0.03 µM, first compound 0.0316 µM
[2] = second compound 0.03 µM, first compound 0.1 µM
[3] = second compound 0.03 µM, first compound 0.316 µM
[4] = second compound 0.03 µM, first compound 1 µM
[5] = second compound 0.0949 µM, first compound 0.0316 µM
[6] = second compound 0.0949 µM, first compound 0.1 µM
[7] = second compound 0.0949 µM, first compound 0.316 µM
[8] = second compound 0.0949 µM, first compound 1 µM
[9] = second compound 0.3 µM, first compound 0.0316 µM
[10] = second compound 0.3 µM, first compound 0.1 µM
[11] = second compound 0.3 µM, first compound 0.316 µM
[12] = second compound 0.3 µM, first compound 1 µM
[13] = second compound 0.949 µM, first compound 0.0316 µM
[14] = second compound 0.949 µM, first compound 0.1 µM
[15] = second compound 0.949 µM, first compound 0.316 µM
[16] = second compound 0.949 µM, first compound 1 µM
[17] = second compound 3 µM, first compound 0.0316 µM
[18] = second compound 3 µM, first compound 0.1 µM
[19] = second compound 3 µM, first compound 0.316 µM
[20] = second compound 3 µM, first compound 1 µM
[21] = second compound 0.03 µM, first compound 3.16 µM
[22] = second compound 0.03 µM, first compound 10 µM
[23] = second compound 0.0949 µM, first compound 3.16 µM
[24] = second compound 0.0949 µM, first compound 10 µM
[25] = second compound 0.3 µM, first compound 3.16 µM
[26] = second compound 0.3 µM, first compound 10 µM
[27] = second compound 0.949 µM, first compound 3.16 µM
[28] = second compound 0.949 µM, first compound 10 µM
[29] = second compound 3 µM, first compound 3.16 µM
[30] = second compound 3 µM, first compound 10 µM

CNC(C)C(=O)NC1CN(S(=O)(=O)c2cccc(S(=O)(=O)N3CCC4CCC(C(=O)NC(c5ccccc5)c5ccccc5)N4C(=O)C(NC(=O)C(C)NC)C3)c2)CCC2CCC(C(=O)NC(c3ccccc3)c3ccccc3)N2C1=O (stereo not given) + CCN1C(C(=O)NC23CCC(C(=O)O)(CC2)CC3)C(c2cccc(Cl)c2F)C2(C(=O)Nc3cc(Cl)ccc32)C12CCCCC2
IC50 (second compound 0.03 µM): < 3.16 nM
IC50 (second compound 0.0949 µM): < 3.16 nM
IC50 (second compound 0.3 µM): < 3.16 nM
IC50 (second compound 0.949 µM): < 3.16 nM
IC50 (second compound 3 µM): < 3.16 nM
viability, T/C (second compound 0.03 µM, first compound 0.00316 µM): 30.1%
viability, T/C (second compound 0.03 µM, first compound 0.01 µM): 27.8%
viability, T/C [1]: 23.9%
viability, T/C [2]: 18.8%
viability, T/C [3]: 19.3%
viability, T/C [4]: 17.5%
viability, T/C (second compound 0.0949 µM, first compound 0.00316 µM): 16.2%
viability, T/C (second compound 0.0949 µM, first compound 0.01 µM): 19.3%
viability, T/C [5]: 16.2%
viability, T/C [6]: 16.8%
viability, T/C [7]: 13.7%
viability, T/C [8]: 16.5%
viability, T/C (second compound 0.3 µM, first compound 0.00316 µM): 13.8%
viability, T/C (second compound 0.3 µM, first compound 0.01 µM): 11%
viability, T/C [9]: 14.3%
viability, T/C [10]: 12.4%
viability, T/C [11]: 8.81%
viability, T/C [12]: 10.8%
viability, T/C (second compound 0.949 µM, first compound 0.00316 µM): 10.8%
viability, T/C (second compound 0.949 µM, first compound 0.01 µM): 10%
viability, T/C [13]: 10.5%
viability, T/C [14]: 9.19%
viability, T/C [15]: 9.26%
viability, T/C [16]: 10.8%
viability, T/C (second compound 3 µM, first compound 0.00316 µM): 10.8%
viability, T/C (second compound 3 µM, first compound 0.01 µM): 8.24%
viability, T/C [17]: 9.03%
viability, T/C [18]: 9.34%
viability, T/C [19]: 11.1%
viability, T/C [20]: 10.5%

O=C(c1ccc(F)c(F)c1Nc1ccc(I)cc1F)N1CC(O)([C@@H]2CCCCN2)C1 + CNC(C)C(=O)NC1CN(S(=O)(=O)c2cccc(S(=O)(=O)N3CCC4CCC(C(=O)NC(c5ccccc5)c5ccccc5)N4C(=O)C(NC(=O)C(C)NC)C3)c2)CCC2CCC(C(=O)NC(c3ccccc3)c3ccccc3)N2C1=O
IC50 (second compound 0.01 µM): 61.8 nM
IC50 (second compound 0.0316 µM): 3.16 nM
IC50 (second compound 0.1 µM): < 3.16 nM
IC50 (second compound 0.316 µM): < 3.16 nM
IC50 (second compound 1 µM): < 3.16 nM
viability, T/C (second compound 0.01 µM, first compound 0.00316 µM): 53.6%
viability, T/C (second compound 0.01 µM, first compound 0.01 µM): 59.4%
viability, T/C (second compound 0.01 µM, first compound 0.0316 µM): 48.5%
viability, T/C (second compound 0.01 µM, first compound 0.1 µM): 45.2%
viability, T/C (second compound 0.01 µM, first compound 0.316 µM): 41.8%
viability, T/C (second compound 0.01 µM, first compound 1 µM): 14.8%
viability, T/C (second compound 0.0316 µM, first compound 0.00316 µM): 50.4%
viability, T/C (second compound 0.0316 µM, first compound 0.01 µM): 46.1%
viability, T/C (second compound 0.0316 µM, first compound 0.0316 µM): 43.6%
viability, T/C (second compound 0.0316 µM, first compound 0.1 µM): 47.7%
viability, T/C (second compound 0.0316 µM, first compound 0.316 µM): 52.1%
viability, T/C (second compound 0.0316 µM, first compound 1 µM): 20.4%
viability, T/C (second compound 0.1 µM, first compound 0.00316 µM): 39.7%
viability, T/C (second compound 0.1 µM, first compound 0.01 µM): 40.8%
viability, T/C (second compound 0.1 µM, first compound 0.0316 µM): 36.1%
viability, T/C (second compound 0.1 µM, first compound 0.1 µM): 43.4%
viability, T/C (second compound 0.1 µM, first compound 0.316 µM): 37.9%
viability, T/C (second compound 0.1 µM, first compound 1 µM): 8.57%
viability, T/C (second compound 0.316 µM, first compound 0.00316 µM): 43.8%
viability, T/C (second compound 0.316 µM, first compound 0.01 µM): 47%
viability, T/C (second compound 0.316 µM, first compound 0.0316 µM): 38.2%
viability, T/C (second compound 0.316 µM, first compound 0.1 µM): 42.3%
viability, T/C (second compound 0.316 µM, first compound 0.316 µM): 41.6%
viability, T/C (second compound 0.316 µM, first compound 1 µM): 13.5%
viability, T/C (second compound 1 µM, first compound 0.00316 µM): 41.5%
viability, T/C (second compound 1 µM, first compound 0.01 µM): 37.6%
viability, T/C (second compound 1 µM, first compound 0.0316 µM): 37.3%
viability, T/C (second compound 1 µM, first compound 0.1 µM): 42.9%
viability, T/C (second compound 1 µM, first compound 0.316 µM): 28.9%
viability, T/C (second compound 1 µM, first compound 1 µM): 11.6%

O=C(c1cc(Cc2n[nH]c(=O)c3ccccc23)ccc1F)N1CCN(C(=O)C2CC2)CC1 + CCN1C(C(=O)NC23CCC(C(=O)O)(CC2)CC3)C(c2cccc(Cl)c2F)C2(C(=O)Nc3cc(Cl)ccc32)C12CCCCC2
IC50 (second compound 0.03 µM): < 31.6 nM
IC50 (second compound 0.0949 µM): < 31.6 nM
IC50 (second compound 0.3 µM): < 31.6 nM
IC50 (second compound 0.949 µM): < 31.6 nM
IC50 (second compound 3 µM): < 31.6 nM
viability, T/C [1]: 49.4%
viability, T/C [2]: 38.6%
viability, T/C [3]: 43.2%
viability, T/C [4]: 41.7%
viability, T/C [21]: 40.7%
viability, T/C [22]: 46.3%
viability, T/C [5]: 26.5%
viability, T/C [6]: 26.8%
viability, T/C [7]: 28.7%
viability, T/C [8]: 29%
viability, T/C [23]: 25.1%
viability, T/C [24]: 23.7%
viability, T/C [9]: 14.2%
viability, T/C [10]: 13.7%
viability, T/C [11]: 14.7%
viability, T/C [12]: 12.3%
viability, T/C [25]: 11.6%
viability, T/C [26]: 12.4%
viability, T/C [13]: 10.5%
viability, T/C [14]: 11.3%
viability, T/C [15]: 10.7%
viability, T/C [16]: 10.2%
viability, T/C [27]: 9.53%
viability, T/C [28]: 9.36%
viability, T/C [17]: 10.4%
viability, T/C [18]: 8.17%
viability, T/C [19]: 9.35%
viability, T/C [20]: 10.7%
viability, T/C [29]: 9%
viability, T/C [30]: 8.64%

C=C(F)C(=O)N1CCN(c2nc(OCC3CCCN3C)nc3c2CCN(c2cccc4cccc(Cl)c24)C3)CC1CC#N (stereo not given) + CCN1C(C(=O)NC23CCC(C(=O)O)(CC2)CC3)C(c2cccc(Cl)c2F)C2(C(=O)Nc3cc(Cl)ccc32)C12CCCCC2
IC50 (second compound 0.03 µM): < 31.6 nM
IC50 (second compound 0.0949 µM): < 31.6 nM
IC50 (second compound 0.3 µM): < 31.6 nM
IC50 (second compound 0.949 µM): < 31.6 nM
IC50 (second compound 3 µM): < 31.6 nM
viability, T/C [1]: 25.2%
viability, T/C [2]: 28.7%
viability, T/C [3]: 35.2%
viability, T/C [4]: 32.9%
viability, T/C [21]: 31.6%
viability, T/C [22]: 0.2%
viability, T/C [5]: 19.6%
viability, T/C [6]: 20.5%
viability, T/C [7]: 17.7%
viability, T/C [8]: 18.5%
viability, T/C [23]: 7.46%
viability, T/C [24]: 0.15%
viability, T/C [9]: 10.7%
viability, T/C [10]: 10.4%
viability, T/C [11]: 9.23%
viability, T/C [12]: 7.64%
viability, T/C [25]: 3.23%
viability, T/C [26]: 0.14%
viability, T/C [13]: 8.48%
viability, T/C [14]: 8.88%
viability, T/C [15]: 8.35%
viability, T/C [16]: 6.27%
viability, T/C [27]: 2.4%
viability, T/C [28]: 0.14%
viability, T/C [17]: 7.28%
viability, T/C [18]: 7.78%
viability, T/C [19]: 8.39%
viability, T/C [20]: 5.04%
viability, T/C [29]: 2.37%
viability, T/C [30]: 0.17%
